Test results from patent publication US8293734B2, “Nitroimidazooxazine and nitroimidazooxazole analogues and their uses” (priority 2009, dated 2012).
In brackets after ≈: the same amount, converted by molar mass.

Legend:
[1] = tested on: replicating Mycobacterium tuberculosis; experiment: MABA microplate Alamar blue assay, MIC (aerobic); type: cell-based; settings: 192 h
[2] = tested on: M. tuberculosis bacteria in the non-replicating state; experiment: LORA low-oxygen-recovery assay, MIC (anaerobic); type: cell-based; settings: Mycobacterium tuberculosis, 264 h; 11 day luminescence-based low-oxygen-recovery assay
VERO cells (CCL-81) = experiment: Mammalian cell cytotoxicity assay (tetrazolium dye); type: cell-based; settings: Chlorocebus sabaeus, 72 h exposure, read-out: IC50 VERO
Experimental: (b) Mammalian cell cytotoxicity assay. This was assessed against VERO cells (CCL-81, American Type Culture Collection) in a 72 h exposure, using a tetrazolium dye assay (Falzari et al., 2005).

[3] = tested on: Trypanosoma cruzi amastigotes (Tulahuen C2C4 strain); experiment: Trypanosoma cruzi assay in infected L-6 cells; type: cell-based; settings: L6, 96 h incubation, read-out: IC50 T. cruzi
Experimental: (§1) (c) Antiprotozoal screening. Compounds were evaluated for their activities against both Trypanosoma cruzi amastigotes and Leishmania donovani amastigotes (free or encapsulated in macrophages), according to the following protocols:
(i) Trypanosoma cruzi assay. L-6 cells (2×10^3) in medium (100 μL of RPMI 1640 supplemented with 2 mM L-glutamine plus 10% heat inactivated fetal calf serum) were seeded in 96-well microtitre plates (Costar™) and incubated at 37° C. (5% CO2) for 1d. A suspension (50 μL) of Trypanosoma cruzi trypomastigotes (5×10^3 of Tulahuen C2C4 strain, containing the β-galactosidase gene) was added, and the cells were incubated at 37° C. (5% CO2) for a further 48 h to establish the infection. The medium was removed and replaced by fresh medium and the infected cells were then incubated at 37° C. (5% CO2) for 96 h in either medium alone or in the presence of serial (3-fold) dilutions of test compounds (initially prepared as 10 mg/mL stock solutions in DMSO and diluted into medium). Benznidazole was employed as a standard in each assay. Following incubation, chlorophenol red glycoside (100 mM) in 0.1% Nonidet P40/PBS (50 μL) was added, and (after 6 h) the absorbance at 540 nm was measured and used to calculate the IC50 values.

[4] = tested on: Axenically grown L. donovani amastigotes (MHOM-ET-67/L82); experiment: Axenic Leishmania donovani assay; type: cell-based; settings: 70 h incubation, read-out: IC50 L. donovani axen
Experimental: as §1
(ii) Axenic Leishmania donovani assay. Axenically grown L. donovani amastigotes (MHOM-ET-67/L82) from a healthy culture in log phase were seeded at a density of 1×10^6/mL medium (SM, pH 5.4 plus 10% heat inactivated fetal calf serum) in 96-well microtitre plates (Costar™) and incubated at 37° C. (5% CO2) for 70 h in either medium alone or in the presence of serial (3-fold) dilutions of test compounds (initially prepared as 10 mg/mL stock solutions in DMSO and diluted into medium). Miltefosin was employed as a standard in each assay. After incubation, Resazurin fluorescent dye was added to each well, and incubation was continued for an additional 2 h. The IC50 values were determined from measurements of the fluorescence data.

[5] = tested on: L. donovani amastigotes (MHOM-ET-67/L82) in mouse macrophages; experiment: Leishmania donovani infected macrophage assay; type: cell-based; settings: 96 h incubation, read-out: IC50 L. donovani macro
Experimental: as §1
(iii) Leishmania donovani infected macrophage assay. Freshly harvested mouse macrophages in medium (RPMI 1640 plus 10% heat inactivated fetal calf serum) were incubated at 37° C. (5% CO2) for 24 h and then infected (1:3 macrophages to amastigotes) with an axenic L. donovani amastigote culture (MHOM-ET-67/L82) in medium (SM, pH 5.4 plus 10% heat inactivated fetal calf serum). The infected macrophages were seeded at a density of 1.2×10^6/mL (by diluting in RPMI+10% FCS) in 16-well slides (Lab-tek™) and incubated at 37° C. (5% CO2) for 24 h. The medium was removed and replaced by fresh medium (RPMI 1640+10% FCS), and this was repeated following mixing. The infected macrophages were then incubated at 37° C. (5% CO2) for 96 h in either medium alone or in the presence of serial (3-fold) dilutions of test compounds (initially prepared as 10 mg/mL stock solutions in DMSO and diluted into medium). Miltefosin was employed as a standard in each assay. […], the slides were fixed (5 min in 100% MeOH) and stained (10% Giemsa, 10 min). The ratio of infected to uninfected macrophages was determined by microscopic examination, and the IC50 values were then calculated by linear regression analysis.

[6] = Stability to human liver microsomes; type: in vitro ADME; settings: 1 μM compound, 60 min, 37° C., 0.5 mg/mL protein
Experimental: (a) Stability of the compounds to human and mouse microsomes. Test compounds (1 μM) were incubated at 37° C. with pooled human or CD-1 mouse liver microsome preparations (0.5 mg/mL final protein concentration) and an NADPH regenerating system (MgCl2, 3.3 mM; G6P, 3.3 mM; G6PD, 0.4 U/mL; NADP+, 1.3 mM) in phosphate buffer (75 mM, pH 7.4), with a final volume of 200 μL. The compounds were dissolved in DMSO such that the final DMSO concentration was 0.5%. Reactions were stopped at 0 and 60 min by the addition of MeCN (100 μL) containing 0.2 μM metoprolol as an internal standard. Samples were diluted 10× and centrifuged prior to analysis by LC-MS/MS using electrospray ionization and SRM monitoring using a gradient LC method. LC peak areas were integrated and expressed as analyte/IS peak area ratios (PAR), and a mean value for each time point was calculated from the duplicates. The percent remaining value was calculated as: % remaining=100×(Mean PART60/Mean PART0).

M. tuberculosis Erdman = experiment: In vivo mouse acute TB infection assay; design: species or system BALB/c mice

| Compound | MIC [1] [µM] | MIC [2] [µM] | IC50 (VERO cells (CCL-81)) [µM] | IC50 [3] [µg/mL] | IC50 [4] [µg/mL] | IC50 [5] [µg/mL] | melting point [°C] | Microsomes (% remaining) Human [6] [%] | In vivo efficacy vs PA-824 (M. tuberculosis Erdman; 100 mg/kg orally daily 5 days a week for 3 weeks, ratio of average lung CFU reduction to that of PA-824) | log reductions in CFU (M. tuberculosis Erdman; lungs, vs vehicle alone-treated mice, day 31, 'up to') |
| --- | --- | --- | --- | --- | --- | --- | --- | --- | --- | --- |
| O=[N+]([O-])c1cn2c(n1)OC(COCc1ccc(-c3ccc(OC(F)(F)F)cc3)cc1)CC2 (centres unmarked) [Compound 51, 2-nitro-7-({[4′-(trifluoromethoxy)[1,1′-biphenyl]-4-yl]methoxy}methyl)-6,7-dihydro-5H-imidazo[2,1-b][1,3]oxazine] | 0.055 (≈ 0.0247 µg/mL) | 1.5 (≈ 0.674 µg/mL) | > 128 | 15 (≈ 33.4 µM) | 0.046 (≈ 0.102 µM) | 0.17 (≈ 0.378 µM) | 159 to 161 |  |  |  |
| COc1ccc(-c2ccc(OCC3(C)Cn4cc([N+](=O)[O-])nc4O3)cc2)cn1 (centres unmarked) [Compound 8, 2-{[4-(6-methoxy-3-pyridinyl)phenoxy]methyl}-2-methyl-6-nitro-2,3-dihydroimidazo[2,1-b][1,3]oxazole] | 0.04 (≈ 0.0153 µg/mL) | 14 (≈ 5.35 µg/mL) | > 128 | 4.1 (≈ 10.7 µM) | 0.017 (≈ 0.0445 µM) | 0.38 (≈ 0.994 µM) | 217 to 219 |  |  |  |
| O=[N+]([O-])c1cn2c(n1)OC[C@@H](OCc1ccc(OC(F)(F)F)cc1)C2 [PA-824, reference compound] |  |  |  |  |  |  |  | 82 | 1.00 | 2.5-3 log |
| CC1(COc2ccc(OCc3ccccc3)cc2)Cn2cc([N+](=O)[O-])nc2O1 (centres unmarked) [Compound 7, 2-{[4-(benzyloxy)phenoxy]methyl}-2-methyl-6-nitro-2,3-dihydroimidazo[2,1-b][1,3]oxazole] | 0.53 (≈ 0.202 µg/mL) | 24 (≈ 9.15 µg/mL) |  | 3.2 (≈ 8.39 µM) | 0.016 (≈ 0.042 µM) | 0.4 (≈ 1.05 µM) | 162 to 165 |  |  |  |
| O=[N+]([O-])c1cn2c(n1)OCC(COCc1cccc(OC(F)(F)F)c1)C2 (centres unmarked) [Compound 71, 2-nitro-6-({[3-(trifluoromethoxy)benzyl]oxy}methyl)-6,7-dihydro-5H-imidazo[2,1-b][1,3]oxazine] | 0.33 (≈ 0.123 µg/mL) | 15 (≈ 5.6 µg/mL) | > 128 | 0.56 (≈ 1.5 µM) | 0.2 (≈ 0.536 µM) | 0.65 (≈ 1.74 µM) | 60 to 61 |  |  |  |
| O=[N+]([O-])c1cn2c(n1)OCC(COCc1cccc(-c3ccc(OC(F)(F)F)cc3)c1)C2 (centres unmarked) [Compound 74, 2-nitro-6-({[4′-(trifluoromethoxy)[1,1′-biphenyl]-3-yl]methoxy}methyl)-6,7-dihydro-5H-imidazo[2,1-b][1,3]oxazine] | 0.22 (≈ 0.0989 µg/mL) | 2.9 (≈ 1.3 µg/mL) | > 128 | 0.94 (≈ 2.09 µM) | 0.16 (≈ 0.356 µM) | 0.54 (≈ 1.2 µM) | 78 to 80 |  |  |  |
| CC1(COCc2ccc(OCc3ccccc3)cc2)Cn2cc([N+](=O)[O-])nc2O1 (centres unmarked) [Compound 26, 2-({[4-(benzyloxy)benzyl]oxy}methyl)-2-methyl-6-nitro-2,3-dihydroimidazo[2,1-b][1,3]oxazole] | 0.3 (≈ 0.119 µg/mL) | 50 (≈ 19.8 µg/mL) | > 128 | 0.34 (≈ 0.86 µM) | 0.013 (≈ 0.0329 µM) | 0.36 (≈ 0.91 µM) | 130 to 131 |  |  |  |
